Measured values from patent US12594268B2, “Methods of treating Fabry disease in patients having a mutation in the GLA gene” (Amicus Therapeutics, Inc., priority 2018, dated 2026).
Changes are numbered by the printed parent chain.

Experiments:
Assay type in all cases: cell-based
α-Gal A mutant form Y88S = target: T1, α-Gal A mutant form Y88S (Homo sapiens, UniProt P06280, Y88S); assay: α-Gal A activity in lysates of transfected HEK-293 cells, Y88S; details: Y-88S
T1 construct: expressed in transfected cells; host or cells: HEK-293
T1 sequence (P06280 32-429 Y88S): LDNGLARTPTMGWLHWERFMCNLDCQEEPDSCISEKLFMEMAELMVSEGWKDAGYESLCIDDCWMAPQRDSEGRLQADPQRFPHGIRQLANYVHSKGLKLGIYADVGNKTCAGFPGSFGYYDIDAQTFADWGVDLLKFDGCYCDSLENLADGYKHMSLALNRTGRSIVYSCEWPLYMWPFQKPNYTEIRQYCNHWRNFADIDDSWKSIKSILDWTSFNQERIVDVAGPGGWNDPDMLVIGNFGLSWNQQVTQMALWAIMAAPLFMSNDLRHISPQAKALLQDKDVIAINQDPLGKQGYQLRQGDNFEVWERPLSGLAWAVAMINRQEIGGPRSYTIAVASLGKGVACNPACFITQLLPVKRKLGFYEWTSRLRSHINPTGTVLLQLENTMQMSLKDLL
Protocol: (§1) Baseline and 10 μM migalastat α-Gal A activity: Differences in the α-Gal A activity between lysates incubated in the absence and presence of 10 μM migalastat were determined using a one-tailed, Mann Whitney U test; an increase at 10 μM migalastat with a p<0.05 was considered significant.
(§2) 10 μM migalastat α-Gal A activity (% WT)=(α-Gal A activity in mutant transfected cell lysates incubated with 10 μM migalastat÷α-Gal A activity in wild-type transfected cell lysates without migalastat)*100.
(§3) Absolute increase (% WT)=is the 10 μM migalastat α-Gal A activity (% WT) minus the baseline α-Gal A activity (% WT).
(§4) Relative increase is the 10 μM migalastat α-Gal A activity in mutant transfected cell lysates÷baseline α-Gal A activity in mutant transfected cell lysates incubated without migalastat.

[1] = target: T2, α-Gal A mutant form R392T (Homo sapiens, UniProt P06280, R392T); assay: α-Gal A activity in lysates of transfected HEK-293 cells, R392T
T2 construct: expressed in transfected cells; host or cells: HEK-293
T2 sequence (P06280 32-429 R392T): T1 sequence (P06280 32-429 Y88S) with S57Y, R361T
Protocol: as §1, §2, §3, §4

[2] = target: T3, α-Gal A mutant form V339A (Homo sapiens, UniProt P06280, V339A); assay: α-Gal A activity in lysates of transfected HEK-293 cells, V339A
T3 construct: expressed in transfected cells; host or cells: HEK-293
T3 sequence (P06280 32-429 V339A): T1 sequence (P06280 32-429 Y88S) with S57Y, V308A
Protocol: as §1, §2, §3, §4

α-Gal A mutant form V22G = target: T4, α-Gal A mutant form V22G (Homo sapiens, UniProt P06280); assay: α-Gal A activity in lysates of transfected HEK-293 cells, V22G
T4 construct: expressed in transfected cells; host or cells: HEK-293
T4 sequence (P06280 32-429): T1 sequence (P06280 32-429 Y88S) with S57Y
Protocol: as §1, §2, §3, §4

[3] = target: T5, α-Gal A mutant form T412P (Homo sapiens, UniProt P06280, T412P); assay: α-Gal A activity in lysates of transfected HEK-293 cells, T412P
T5 construct: expressed in transfected cells; host or cells: HEK-293
T5 sequence (P06280 32-429 T412P): T1 sequence (P06280 32-429 Y88S) with S57Y, T381P
Protocol: as §1, §2, §3, §4

[4] = 10 μM migalastat minus baseline
[5] = 10 μM migalastat ÷ baseline activity
[6] = HEK-293 lysates, 10 nM migalastat as printed, 5 days, mean ± SEM
[7] = HEK-293 lysates, 10 μM migalastat, 5 days, mean ± SEM

## OC[C@H]1NC[C@H](O)[C@@H](O)[C@H]1O [migalastat, (2R,3S,4R,5S)-2-(hydroxymethyl) piperdine-3,4,5-triol]
α-Gal A mutant form Y88S; [4]
  Absolute increase (% WT): 10.3 % WT
α-Gal A mutant form Y88S; [5]
  Relative increase: 3.67
α-Gal A mutant form Y88S; [6]
  10 nM migalastat α-Gal A activity: 5542 ± 376 nmol/mg/h
α-Gal A mutant form Y88S; [7]
  10 μM migalastat α-Gal A activity (% WT): 14.1 ± 1.3 % WT
[1]; [4]
  Absolute increase (% WT): 21.3 % WT
[1]; [5]
  Relative increase: 1.22
[1]; [6]
  10 nM migalastat α-Gal A activity: 36679 ± 1896 nmol/mg/h
[1]; [7]
  10 μM migalastat α-Gal A activity (% WT): 125.9 ± 6.2 % WT
[2]; [4]
  Absolute increase (% WT): 16.8 % WT
[2]; [5]
  Relative increase: 1.33
[2]; [7]
  10 μM migalastat α-Gal A activity: 25174 ± 2895 nmol/mg/h
  10 μM migalastat α-Gal A activity (% WT): 65.6 ± 4.2 % WT
α-Gal A mutant form V22G; [4]
  Absolute increase (% WT): 9.0 % WT
α-Gal A mutant form V22G; [5]
  Relative increase: 1.53
α-Gal A mutant form V22G; [7]
  10 μM migalastat α-Gal A activity: 7150 ± 700 nmol/mg/h
  10 μM migalastat α-Gal A activity (% WT): 24.6 ± 2.8 % WT
[3]; [4]
  Absolute increase (% WT): 16.9 % WT
[3]; [5]
  Relative increase: 11.21
[3]; [7]
  10 μM migalastat α-Gal A activity: 7159 ± 459 nmol/mg/h
  10 μM migalastat α-Gal A activity (% WT): 18.6 ± 1.2 % WT
